From patent US20070078262A1, “Thiomorpholino steroid compounds, the use thereof for the preparation of meiosis-regulating medicaments and method for the preparation thereof” (SCHERING AKTIENGESELLSCHAFT, priority 2003, published 2007)
Values after ≈ are worked out from the molar mass of the structure shown.

What was measured:
[1] = physchem; conditions: water
[2] = tested on: mouse oocytes; assay: In vitro fertilization (IVF) after in vitro maturation of oocytes; format: cell-based, mice (C57BL/6J×DBA/2J F1)
Protocol: Changes in the subsequent IVF are therefore probably due to effects of the test compounds on cytoplasmic maturation.
Immature female mice (C57BL/6J×DBA/2J F1) in the age of 21-24 days were used as oocyte donors. Animals were given an i.p. injection of 10 IU pregnant mare serum gonadotropin (PMSG) to induce follicular growth. Animals were killed by cervical dislocation 48 hours later and the ovaries were dissected out. As sperm donors eight week old male mice (C57BL/6J×DBA/2J F1) were used.
Oocytes were isolated from the ovaries by manual rupture of the follicles using a pair of 27-gauge needles. Spherical naked oocytes (NkO) and CEOs displaying an intact GV were selected and placed in α-minimum essential medium (α-MEM without ribonucleosides, Gibco BRL, Gaithersburg; Cat. No. 22561) supplemented with 8 mg/ml human serum albumin (HSA), 0.23 mM pyruvate, 2 mM glutamine, 100 IU/ml penicillin and 100 μg/ml streptomycin.
The oocytes were rinsed three times in culture medium without oil overlay in 4-well multidishes containing 0.4 ml of the respective oocyte culture medium.
The oocyte culture medium was supplemented with 6.4% Fetal Bovine Serum (FBS). Solutions of novel compound IA and of the two compounds in comparison as mentioned were prepared from a stock solution containing 1 mg/ml of compound dissolved in absolute ethanol. The control group was cultured with a corresponding amount of ethanol.
After a culture time of 18-19 hours oocytes were further processed for in vitro fertilization. […] Oocytes were briefly washed without any test compound and subsequently transferred to the insemination dishes prepared in advance, which contained approximately 600.000 capacitated sperm cells per 500 μl IVF medium (obtained from the epididymides of male mice). The dishes were then incubated under defined gas conditions (5% CO2 in air) at 37° C. in a modified α-MEM IVF medium supplemented with 8 mg/ml HSA, 0.23 mM pyruvate, 100 IU penicillin/ml and 100 μg streptomycin/ml as described above for oocyte maturation.
Examination of the oocytes was carried out 22-24 hours after insemination in order to check fertilization and to record the number of pronucleus (PN) and 2-cell stage embryos. The fertilization rate was determined as the number of oocytes that had reached the PN or 2-cell embryo stage, relative to the total number inseminated.

[3] = tested on: in vitro fertilized ova (2-cell embryos); assay: Retransfer study / fertility trial (in vitro fertilized 2-cell embryos transferred into foster mothers); format: in vivo, mice; conditions: for No. of Implantation Spots: Odds / No. of Viable Fetuses: Odds: successes divided by failures; for No. of Implantation Spots: Failures: transferred ova minus implantation spots; for No. of Viable Fetuses: Failures: transferred ova minus viable fetuses; for Odds Ratio for comparison to FF-MAS, No. of Implantation Spots / Odds Ratio for comparison to FF-MAS, No. of Viable Fetuses: versus FF-MAS 10 μM
Protocol: In vitro fertilization was performed as described above for the IVF experiment.
One day before the retransfer female recipient mice (foster mothers) in pro-estrus cycle state were mated with vasectomized males in order to trigger pseudogestation. One day later a vaginal check was performed. Animals with a positive, sperm-free vaginal plug (successful mating) entered the study. This day was designated day 0 of gestation (=day 0 after the sterile copulation, day 0 p.c.). […] 2-cell embryos were transferred into the right tube of the foster mothers on day 0 after the sterile copulation under anesthesia. The contra-lateral tube remained unused (check for pseudogestation). The foster mothers were sacrified on day 19 of gestation. The fetuses were removed and examined. The ovaries and uteri were removed immediately to record the number of implantation sites, viable and dead fetuses and resorptions. Apparently non-pregnant uteri were placed in a 10% aqueous solution of ammonium sulfide for about 10 min to stain possible implantation sites in the endometrium. The viable fetuses were individually weighed and their sex determined by inspection of their gonads.
In a fertility trial 269 mice were randomized into 6 groups and implanted with 7-10 in vitro fertilized ova. The in vitro fertilization took place in the presence of vehicle (group 1) or of a substance (groups 2 to 6).
The fertility raising effect of the substances in comparison to the vehicle control was of main interest. Moreover, an improvement compared to the substance FF-MAS was also investigated.
Variables of primary interest are the number of implantation spots and the number of viable fetuses.
The data for implantation spots as well as for viable fetuses have to be considered to have binary character, i.e. it can be expressed in rates or in a number of successes and failures with respect to the number of transferred ova. Therefore, methods as outlined by D. Collett: “Modelling Binary Data”, 2nd edition, Chapman & Hall/CRC, Boca Raton, constitute appropriate approaches to the data analysis.
The odds ratio of one group as compared to the other is defined as: odds ratio (group 1, group 2)=or1,2=odds (group 1)/odds (group 2)
where the odds of a group can be estimated by the number of successes divided by the number of failures in that group.
To reach statements about the significance of any findings, 95% confidence-intervals for the odds ratios are computed as: [ exp(log(or1,2)[…]1.96·se(log(or1,2))); exp(log(or1,2)+1.96·se(log(or1,2)))]
wherein se(log(or1,2)) is the standard error of the log odds ratio (see D. Collett (2003) for the corresponding formula).
As a basis for the computation of odds ratios, the number of successes (i.e., the number of implantation spots of number of viable fetuses) and failures (i.e., the number of transferred ova minus the number of implantation spots or number of viable fetuses) are computed for all groups.

SMILES: C[C@H](CN1CCSCC1)[C@H]1CC=C2C3=C(CC[C@@]21C)[C@@]1(C)CC[C@H](O)C(C)(C)[C@@H]1CC3 [Compound IA, (20S)-20-[(thiomorpholin-4-yl)methyl]-4,4-dimethyl-5α-pregna-8,14-dien-3β-ol]
- solubility [1]: ~4 µg/mL (≈ 9.01 µM)
- effect on 2-cell and blastocyst rate ([2]; already at 0.1 μM, tends to be even higher at 1 μM): beneficial effect
- fertilization rates of mouse oocytes compared to vehicle control (FIG. 3) ([2]; in vitro maturation without hypoxanthine, then IVF, n=18): higher fertilization rates
- No. of Implantation Spots: Success ([3]; 1 μM): 120
- No. of Viable Fetuses: Success ([3]; 1 μM): 51
- Odds Ratio for comparison to vehicle control, No. of Implantation Spots ([3]; 1 μM): 1.51
- Odds Ratio for comparison to vehicle control, No. of Viable Fetuses ([3]; 1 μM): 1.70
- increase of the odds of a successful implantation versus vehicle control ([3]; 1 μM): 51%
- No. of Implantation Spots: Odds ([3]; 1 μM): 0.38
- No. of Viable Fetuses: Odds ([3]; 1 μM): 0.13
- No. of Implantation Spots: Failures ([3]; 1 μM): 317
- No. of Viable Fetuses: Failures ([3]; 1 μM): 386
- Odds Ratio for comparison to FF-MAS, No. of Implantation Spots ([3]; 1 μM): 1.27
- Odds Ratio for comparison to FF-MAS, No. of Viable Fetuses ([3]; 1 μM): 1.15
- No. of Implantation Spots: Success ([3]; 10 μM): 123
- No. of Viable Fetuses: Success ([3]; 10 μM): 40
- Odds Ratio for comparison to vehicle control, No. of Implantation Spots ([3]; 10 μM): 1.55
- Odds Ratio for comparison to vehicle control, No. of Viable Fetuses ([3]; 10 μM): 1.29
- better chance (odds) of a successful implantation versus vehicle control ([3]; 10 μM): 55%
- No. of Implantation Spots: Odds ([3]; 10 μM): 0.39
- No. of Viable Fetuses: Odds ([3]; 10 μM): 0.10
- No. of Implantation Spots: Failures ([3]; 10 μM): 317
- No. of Viable Fetuses: Failures ([3]; 10 μM): 400
- Odds Ratio for comparison to FF-MAS, No. of Implantation Spots ([3]; 10 μM): 1.30
- Odds Ratio for comparison to FF-MAS, No. of Viable Fetuses ([3]; 10 μM): 0.87
- shows significant improvement of odds versus vehicle control, number of implantation spots ([3]; 95% confidence interval of odds ratio, all doses tested): significant improvement of odds
- implantation rate per transferred 2-cell embryos (FIG. 4) ([3]; FF-MAS 10 μM, compound IA 1 μM and 10 μM): higher numbers
- increase of the odds for a success in terms of viable fetuses versus vehicle control ([3]; lower doses (1 μM)): 70%
